Results published in patent US9958439B2, “Carbohydrate detection” (RICHTER LIFE SCIENCE DEVELOPMENT AB, priority 2012, dated 2018).
Read-outs that look alike come from different tables or passages of the source.

What was measured:
[1] = for RFU change (Correlation analysis) / RFU change (Signal deviation with increasing [Carbohydrate]) / λmax change: 3 μM probe; for RFU change (Correlation analysis): probe-specific excitation λ, emission 545 nm; for RFU change (Signal deviation with increasing [Carbohydrate]) / λmax change: spectral analysis, Excitation 300-500, Emission 545; for carbohydrate can be detected and/or differentiated by the LCO: conclusion from change in signal magnitude and/or shift in λmax; for Gradient Parameters (gradient of regression line) / Linear relationship / Quality of Gradient: linear regression
Procedure, shortened: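 Each LCO probe at 3 μM was added to two-fold serial dilutions of carbohydrate in dH2O (10–0.039 mg/ml for β-1,3-glucan, cellulose, chitin; 5–0.019 mg/ml for the others), run in triplicate. Excitation spectra were scanned 300–500 nm with emission at 545 nm. Detection was a reproducible λmax and/or RFU shift versus negative control, with linear regression of RFU against concentration.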

[2] = Procedure, shortened: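 LCO probes (3 μM) were added to serial two-fold dilutions of carbohydrate suspensions in dH2O, with excitation scanned 300–500 nm and emission at 545 nm. Detection was a reproducible λmax and/or RFU change versus no-carbohydrate control. RFU was regressed linearly against concentration at the λmax or the lowest-background excitation.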
[3] = remark: listed apart in the source
Procedure, shortened: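 LCO probes at 3 μM mixed with serial two-fold carbohydrate dilutions in water (10–0.039 or 5–0.019 mg/ml), run in triplicate. Excitation scanned 300–500 nm with emission at 545 nm; detection based on reproducible λmax or RFU shift against the no-carbohydrate control, with linear regression of RFU on concentration.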

[4] = for RFU change (Correlation analysis): probe-specific excitation λ, emission 545 nm
Procedure, shortened: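 LCO probes at 3 μM mixed with serial two-fold dilutions of carbohydrate in dH2O (10–0.039 or 5–0.019 mg/ml, depending on carbohydrate), in triplicate. Excitation scanned 300–500 nm or fixed per probe (λmax or lowest background), emission at 545 nm. Detection taken as reproducible λmax/RFU shift vs no-carbohydrate control; RFU regressed linearly on concentration.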

[5] = for RFU change (Correlation analysis) / RFU change (Signal deviation with increasing [Carbohydrate]): 3 μM probe; for RFU change (Correlation analysis): probe-specific excitation λ, emission 545 nm; for RFU change (Signal deviation with increasing [Carbohydrate]): spectral analysis, Excitation 300-500, Emission 545; for Gradient Parameters (gradient of regression line) / Linear relationship / Quality of Gradient: linear regression
Procedure, shortened: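 LCO probes at 3 μM mixed with serial twofold carbohydrate dilutions in dH2O (10–0.039 or 5–0.019 mg/ml, depending on carbohydrate). Excitation scanned 300–500 nm, emission read at 545 nm; detection defined as reproducible shift in λmax and/or RFU relative to negative control, with linear regression of RFU against concentration.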

[6] = remark: listed apart in the source
Procedure, shortened: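 3 μM of each LCO probe was added to serial two-fold carbohydrate dilutions in water (10–0.039 or 5–0.019 mg/ml). Excitation spectra were scanned 300–500 nm with emission at 545 nm, in triplicate. Detection was defined as a reproducible shift in λmax and/or RFU versus negative control, with linear regression of RFU against concentration.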

[7] = β-1,3-glucan concentration vs RFU
[8] = sodium alginate concentration vs RFU, linear regression
[9] = glucose concentration vs RFU, linear regression
[10] = Cellulobiose 5-0.019 mg/ml, 3 μM probe, spectral analysis, Excitation 300-500, Emission 545
[11] = amylose concentration vs RFU, linear regression
[12] = Chondroitin Sulfate A 5-0.019 mg/ml, 3 μM probe, spectral analysis, Excitation 300-500, Emission 545
[13] = Chondroitin Sulfate A concentration vs RFU, linear regression

NCCCC[C@H](NC(=O)Cc1cc(-c2cccs2)sc1-c1ccc(-c2sc(-c3cccs3)cc2CC(=O)N[C@@H](CCCCN)C(=O)[O-])s1)C(=O)[O-].[Na+].[Na+] [pHTA-Lys, penta Hydrogen Thiophene Acetic acid Lysine]
Decreases: RFU change (Signal deviation with increasing [Carbohydrate]) [6, 12]
107.9 ± 16.4: Gradient Parameters (gradient of regression line) [1, 7]
can be detected and/or differentiated: carbohydrate can be detected and/or differentiated by the LCO ([1]; Cellulose) | carbohydrate can be detected and/or differentiated by the LCO ([1]; Chitin) | carbohydrate can be detected and/or differentiated by the LCO ([1]; β-1,3-Glucan) | carbohydrate can be detected and/or differentiated by the LCO ([2]; Sodium alginate, conclusion from change in signal magnitude and/or shift in λmax) | carbohydrate can be detected and/or differentiated by the LCO ([4]; Amylose, conclusion from change in signal magnitude and/or shift in λmax) | carbohydrate can be detected and/or differentiated by the LCO ([5]; Glycogen, conclusion from change in signal magnitude and/or shift in λmax) | carbohydrate can be detected and/or differentiated by the LCO ([6]; Chondroitin sulfate A, conclusion from change in signal magnitude and/or shift in λmax)
Increases: RFU change (Correlation analysis) ([1]; Chitin 10-[…]) | RFU change (Signal deviation with increasing [Carbohydrate]) ([1]; Chitin 10-[…]) | RFU change (Correlation analysis) ([2]; Sodium alginate 5-0.019 mg/ml, 3 μM probe, probe-specific excitation λ, emission 545 nm) | RFU change (Signal deviation with increasing [Carbohydrate]) ([2]; Sodium alginate 5-0.019 mg/ml, 3 μM probe, spectral analysis, Excitation 300-500, Emission 545) | RFU change (Correlation analysis) ([4]; Amylose 5-0.019 mg/ml, 3 μM probe) | RFU change (Signal deviation with increasing [Carbohydrate]) ([4]; Amylose 5-0.019 mg/ml, 3 μM probe, spectral analysis, Excitation 300-500, Emission 545) | RFU change (Correlation analysis) ([5]; Glycogen 5-0.019 mg/ml) | RFU change (Signal deviation with increasing [Carbohydrate]) ([5]; Glycogen 5-0.019 mg/ml) | RFU change (Correlation analysis) ([5]; Heparin 5-0.019 mg/ml) | RFU change (Signal deviation with increasing [Carbohydrate]) ([5]; Heparin 5-0.019 mg/ml) | RFU change (Correlation analysis) ([6]; Chondroitin Sulfate A 5-0.019 mg/ml, 3 μM probe, probe-specific excitation λ, emission 545 nm)
43.6 ± 7.9: Gradient Parameters (gradient of regression line) ([5]; glycogen concentration vs RFU)
No change: λmax change [4, 10] | λmax change [6, 12]
23.6 ± 13.7: Gradient Parameters (gradient of regression line) [3, 9]
Unclear: RFU change (Correlation analysis) ([3]; Glucose 5-0.019 mg/ml, 3 μM probe, probe-specific excitation λ, emission 545 nm) | RFU change (Signal deviation with increasing [Carbohydrate]) ([3]; Glucose 5-0.019 mg/ml, 3 μM probe, spectral analysis, Excitation 300-500, Emission 545) | RFU change (Correlation analysis) ([4]; Cellulobiose 5-0.019 mg/ml, 3 μM probe) | RFU change (Signal deviation with increasing [Carbohydrate]) [4, 10]
Redshift: λmax change ([1]; Cellulose 10-[…]) | λmax change ([1]; Chitin 10-[…])
Decrease: RFU change (Signal deviation with increasing [Carbohydrate]) ([1]; β-1,3-glucan 10-[…])
291.8 ± 46.6: Gradient Parameters (gradient of regression line) ([1]; cellulose concentration vs RFU)
48.4 ± 18.2: Gradient Parameters (gradient of regression line) ([5]; heparin concentration vs RFU)
Horizontal: Quality of Gradient [3, 9] | Quality of Gradient ([4]; cellulobiose concentration vs RFU, linear regression)
55.4 ± 5.3: Gradient Parameters (gradient of regression line) [2, 8]
47.7 ± 18.5: Gradient Parameters (gradient of regression line) [4, 11]
Significant: Linear relationship ([1]; cellulose concentration vs RFU) | Linear relationship ([1]; chitin concentration vs RFU) | Linear relationship [2, 8] | Linear relationship [4, 11] | Linear relationship ([5]; glycogen concentration vs RFU) | Linear relationship ([5]; heparin concentration vs RFU) | Linear relationship [6, 13]
No: Sensitivity ([3]; to glucose) | Sensitivity ([4]; to cellulobiose)
273.8 ± 46.2: Gradient Parameters (gradient of regression line) ([1]; chitin concentration vs RFU)
Increase: RFU change (Correlation analysis) ([1]; Cellulose 10-[…]) | RFU change (Signal deviation with increasing [Carbohydrate]) ([1]; Cellulose 10-[…]) | RFU change (Correlation analysis) ([1]; β-1,3-glucan 10-[…])
Yes: Sensitivity ([1]; to cellulose) | Sensitivity ([1]; to chitin) | Sensitivity ([1]; to β-1,3-glucan) | Sensitivity ([2]; to sodium alginate) | Sensitivity ([4]; to amylose) | Sensitivity ([5]; to glycogen) | Sensitivity ([5]; to heparin) | Sensitivity ([6]; to Chondroitin Sulfate A)
Positive: Quality of Gradient ([1]; cellulose concentration vs RFU) | Quality of Gradient ([1]; chitin concentration vs RFU) | Quality of Gradient [1, 7] | Quality of Gradient [2, 8] | Quality of Gradient [4, 11] | Quality of Gradient ([5]; glycogen concentration vs RFU) | Quality of Gradient ([5]; heparin concentration vs RFU) | Quality of Gradient [6, 13]
194.8 ± 19.2: Gradient Parameters (gradient of regression line) [6, 13]
